# Experiments:
# A431 = assay: Synergistic interaction with DHA, combination index (Chou-Talalay, SRB); assay type: cell-based; details: drug in combination with DHA (1.0-20 μM), DHA 2 h before, drug 72 h
# Description: (§1) Tumour cells were treated for 2 h with DHA prior to exposure to further chemotherapeutic agents for 72 h. Cell survival was then evaluated through sulphorodamine B test. Data gathered from the various combination experiments were analyzed using Calcusyn software (Biosoft, Ferguson, Mo.) through the elaboration of isobolograms to determine if the combinations of DHA and the various chemotherapeutic agents were additive, synergistic or antagonistic.
# HCT116 [1] = assay: as above; assay type: cell-based; details: drug in combination with DHA (1.0-20 μM), DHA 2 h before, drug 72 h
# Description: as §1
# CAPAN-1 = assay: as above; assay type: cell-based; details: drug in combination with DHA (1.0-20 μM), DHA 2 h before, drug 72 h
# Description: as §1
# MDA-MB436 = assay: as above; assay type: cell-based; details: drug in combination with DHA (1.0-20 μM), DHA 2 h before, drug 72 h
# Description: as §1
# NCI-H460 = assay: as above; assay type: cell-based; details: drug in combination with DHA (1.0-20 μM), DHA 2 h before, drug 72 h
# Description: as §1
# [2] = system: HCT116 colon cancer cells; assay: In vivo antitumour activity, s.c. xenograft in CD1 nude mice; details: DHA 200 mg/kg p.o., AZD2281 100 mg/kg i.p., qdx5/wx4w; for antitumor effect when given singularly / tolerability (body weight loss during the treatment): HCT116 xenograft mice, ABT-888 50 mg/kg; for BWL %: body weight loss; for BWL % / TVI % / TV ± SE: HCT116 xenograft, CD1 nude mice, ABT-888 50 mg/kg i.p.; for TVI %: tumour volume inhibition; for TV ± SE: tumour volume, evaluated at about 500 mm^3
# Description: HCT116 colon cancer cells were inoculated subcutaneously (s.c.) in the right flank of CD1 nude mice (5×10^6/0.1 ml of Medium 199). Treatments started three days after tumour injection. Mice were subdivided (8 mice/group) in the following experimental groups:
# (§2) a) Vehicle (DMSO 10%) 10 ml/kg, i.p.;
# b) DHA 200 mg/kg, p.o. qdx5/wx4w;
# d) AZD2281+DHA (doses and schedules as above);
# e) ABT-888 50 mg/kg, i.p. qdx5/wx4w;
# f) ABT-888+DHA (doses and schedules as above).
# DHA was administered immediately before AZD2281 or ABT-888.
# The antitumour activity was evaluated according to the protocol reported hereinabove in example 3 when tumours reached a volume of about 500 mm^3.
# Body weight recording was carried out to evaluate body weight loss according to the protocol reported hereinabove in example 3.
# A2780 = assay: Synergistic interaction with DHA, combination index (Chou-Talalay, SRB); assay type: cell-based; details: drug in combination with DHA (1.0-20 μM), DHA 2 h before, drug 72 h
# Description: (§3) Tumour cells were grown in RPMI 1640 containing 10% foetal bovine serum and treated as described in example 1 with the exception that instead of being exposed only to ART or DHA, the cell lines were treated with the drugs reported in table 2 in combination with DHA (from 1.0 μM to 20 μM, table 2). Tumour cells were treated for 2 h with DHA prior to exposure to further chemotherapeutic agents for 72 h. Cell survival was then evaluated through sulphorodamine B test. Data gathered from the various combination experiments were analyzed using Calcusyn software (Biosoft, Ferguson, Mo.) through the elaboration of isobolograms to determine if the combinations of DHA and the various chemotherapeutic agents were additive, synergistic or antagonistic. Viability assay results (SRB) were expressed as the fraction of cells killed when exposed to a single drug or to a drug combination with respect to the untreated cells. A combination index value (CI) was determined by means of the Chou-Talalay median effect method (T-C Chou, et al., Trends Pharmacol. Sci., 1983, 4, 450), wherein synergism can be defined when CI<1 and the lower the CI parameter value, the stronger the synergism (as defined by CalcuSyn 2.0 analyzer).
# LoVo/Dx MDR = assay: Anti-proliferative activity, sulphorodamine B test; assay type: cell-based
# Description: (§4) The biological activity of DHA and ART on tumour cells survival was evaluated. The latter were seeded in 96-well tissue culture plates at approximately 10% confluence and were allowed to attach and recover for at least 24 h before being exposed to DHA or ART for 24 h at 37° C. They were then washed to remove DHA and ART and left to recover for 48 hours in medium culture. The medium culture was then removed and cells were washed three times with PBS. The plates were then incubated for on ice for 1 hour with 200 μl of PBS and 50 μl of cold 80% TCA before being washed with distilled water, dried on paper and finally at 40° C. for 5 minutes. 200 μl of 0.4% sulphorodamine B in 1% acetic acid were added and the incubation was prolonged for 30 minutes. Sulphorodamine B was removed, and the plates were washed 3 times with 1% acetic acid. They were finally dried on paper followed by standing at 40° C. for 5 minutes. Then 200 μl Tris 10 mM were added, the plates were kept under stirring for 20 minutes. Cell survival was determined as optical density at 540 nm by means of a Multiskan spectrofluorimeter. The amount of cells killed was expressed as the percentage decrease in sulphorodamine B binding compared to control cultures. IC50 were generated with their standard deviations by the ALLFIT program.
# MCF-7/Dx MDR = assay: Anti-proliferative activity, sulphorodamine B test; assay type: cell-based
# Description: as §4
# MCF-7 = assay: Anti-proliferative activity, sulphorodamine B test; assay type: cell-based; details: Homo sapiens, MCF7, 24 h exposure, 48 h recovery
# Description: as §4
# HCT116 [3] = assay: Anti-proliferative activity, sulphorodamine B test; assay type: cell-based; details: Homo sapiens, HCT-116, 24 h exposure, 48 h recovery
# Description: as §4
# LoVo = assay: Anti-proliferative activity, sulphorodamine B test; assay type: cell-based; details: Homo sapiens, 24 h exposure, 48 h recovery
# Description: as §4
# [4] = system: NCI-H460 non-small cell lung carcinoma; assay: In vivo antitumor activity, s.c. xenograft in CD1 nude mice; details: DHA 200 mg/kg p.o., AZD2281 100 mg/kg i.p., qdx5/wx3w
# Description: NCI-H460 non-small cell lung carcinoma cells were inoculated subcutaneously (s.c.) in the right flank of CD1 nude mice (3×10^6/0.1 ml of Medium 199). Treatments started three days after tumour injection. Mice were subdivided (10 mice/group) in the following experimental groups:
# as §2
# b) DHA 200 mg/kg, p.o. qdx5/wx3w;
# d) AZD2281+DHA (doses and schedules as above).
# For the latter experiment DHA was administered immediately before AZD2281.
# To evaluate the antitumour activity, tumour diameters were measured with a Vernier calliper according to the formula TV=d^2×D/2 where d and D are the shortest and longest diameters, respectively.
# When tumours reached a volume of about 1500 mm^3, mice were sacrificed by cervical dislocation. The efficacy of the drug was assessed as the tumour volume inhibition according to the formula reported underneath: […]
# Body weight recording was carried out to evaluate body weight loss as calculated in the equation underneath: […]
# Wherein BW day x corresponds to the mean weight at day x of the experiment meanwhile BW day 1 corresponds to the mean weight at the first day of the experiment.
# A2780/DDP = assay: Synergistic interaction with DHA, combination index (Chou-Talalay, SRB); assay type: cell-based; details: drug in combination with DHA (1.0-20 μM), DHA 2 h before, drug 72 h
# Description: as §3
# SW620 = assay: as above; assay type: cell-based; details: drug in combination with DHA (1.0-20 μM), DHA 2 h before, drug 72 h
# Description: as §3
smiles,measurement,setting,value
C[C@]1(c2nc3c(C(N)=O)cccc3[nH]2)CCCN1 [ABT-888],Combination index values ED50,A431,0.45
same,Combination index values ED75,A431,0.49
same,Combination index values ED90,A431,0.37
same,Combination index values ED50,HCT116 [1],0.66
same,Combination index values ED75,HCT116 [1],0.66
same,Combination index values ED90,HCT116 [1],0.66
same,Combination index values ED50,CAPAN-1,0.59
same,Combination index values ED75,CAPAN-1,0.32
same,Combination index values ED90,CAPAN-1,0.22
same,Combination index values ED50,MDA-MB436,0.42
same,Combination index values ED75,MDA-MB436,0.43
same,Combination index values ED90,MDA-MB436,0.47
same,Combination index values ED50,NCI-H460,0.78
same,Combination index values ED75,NCI-H460,0.61
same,Combination index values ED90,NCI-H460,0.49
same,antitumor effect when given singularly,[2],None of them when given singularly did show any antitumor effect
same,tolerability (body weight loss during the treatment),[2],well-tolerated
same,BWL %,[2],0%
same,TVI %,[2],2%
same,TV ± SE,[2],395 ± 56
CC[C@@]1(O)C(=O)OCc2c1cc1n(c2=O)Cc2c-1nc1ccccc1c2/C=N\OCCN [7-(2-amino)-ethoxyiminomethyl-camptothecin],Combination index values ED50,NCI-H460,0.39
same,Combination index values ED75,NCI-H460,0.24
same,Combination index values ED90,NCI-H460,0.16
NC(=O)c1cccc2cn(-c3ccc([C@@H]4CCCNC4)cc3)nc12 [MK-4827],Combination index values ED50,NCI-H460,0.83
same,Combination index values ED75,NCI-H460,0.83
same,Combination index values ED90,NCI-H460,0.84
CCc1c2c(nc3ccc(O)cc13)-c1cc3c(c(=O)n1C2)COC(=O)[C@]3(O)CC [SN-38],Combination index values ED50,NCI-H460,0.81
same,Combination index values ED75,NCI-H460,0.68
same,Combination index values ED90,NCI-H460,0.59
"N.N.[Cl][Pt][Cl] [Cisplatin, cisplatin]",Combination index values ED50,NCI-H460,0.79
same,Combination index values ED75,NCI-H460,0.88
same,Combination index values ED90,NCI-H460,0.98
O=c1[nH]c2ccccc2c2ccccc12 [Phenanthridinone],Combination index values ED50,NCI-H460,0.19
same,Combination index values ED75,NCI-H460,0.20
same,Combination index values ED90,NCI-H460,0.22
same,Combination index values ED50,A2780,0.003
same,Combination index values ED75,A2780,0.05
same,Combination index values ED90,A2780,0.67
"COc1cccc2c1C(=O)c1c(O)c3c(c(O)c1C2=O)C[C@@](O)(C(=O)CO)C[C@@H]3O[C@H]1C[C@H](N)[C@H](O)[C@H](C)O1 [Doxorubicin, doxorubicin]",Combination index values ED50,NCI-H460,0.76
same,Combination index values ED75,NCI-H460,0.53
same,Combination index values ED90,NCI-H460,0.37
same,resistance index,LoVo/Dx MDR; LoVo/Dx MDR versus LoVo,63
"C[C@@H]1CC[C@H]2[C@@H](C)C(=O)O[C@@H]3O[C@@]4(C)CC[C@@H]1[C@]32OO4 [ART, artemisinin]",IC50,"MCF-7/Dx MDR; MCF7/DX, MCF-7/Dx MDR, 24 h exposure, 48 h recovery",187 ± 70 µM
same,resistance index,MCF-7/Dx MDR; MCF-7/Dx MDR versus MCF-7,4
same,IC50,MCF-7,45.8 ± 11.5 µM
same,IC50,HCT116 [3],257 ± 28.8 µM
same,IC50,"LoVo/Dx MDR; LoVo/Dx MDR, 24 h exposure, 48 h recovery",> 200 µM
same,IC50,LoVo,> 200 µM
O=C(c1cc(Cc2n[nH]c(=O)c3ccccc23)ccc1F)N1CCN(C(=O)C2CC2)CC1 [AZD2281],Combination index values ED50,A431,0.37
same,Combination index values ED75,A431,0.02
same,Combination index values ED90,A431,0.02
same,Combination index values ED50,HCT116 [1],0.36
same,Combination index values ED75,HCT116 [1],0.34
same,Combination index values ED90,HCT116 [1],0.31
same,Combination index values ED50,CAPAN-1,0.35
same,Combination index values ED75,CAPAN-1,0.49
same,Combination index values ED90,CAPAN-1,0.73
same,Combination index values ED50,MDA-MB436,0.28
same,Combination index values ED75,MDA-MB436,0.30
same,Combination index values ED90,MDA-MB436,0.68
same,Combination index values ED50,NCI-H460,0.62
same,Combination index values ED75,NCI-H460,0.48
same,Combination index values ED90,NCI-H460,0.42
same,antitumor effect when given singularly,[4]; NCI-H460 xenograft mice,no antitumor effect
same,tolerability (body weight loss during the treatment),[4]; NCI-H460 xenograft mice,well-tolerated
same,BWL %,"[4]; body weight loss, NCI-H460 xenograft, CD1 nude mice",1%
same,TVI %,"[4]; tumour volume inhibition, NCI-H460 xenograft, CD1 nude mice",1%
same,TV ± SE,"[4]; tumour volume, NCI-H460 xenograft, CD1 nude mice, sacrifice at about 1500 mm^3",1603 ± 171
same,antitumor effect when given singularly,[2],None of them when given singularly did show any antitumor effect
same,tolerability (body weight loss during the treatment),[2],well-tolerated
same,BWL %,[2],1%
same,TVI %,[2],18%
same,TV ± SE,[2],328 ± 52
same,Combination index values ED50,A2780/DDP,0.63
same,Combination index values ED75,A2780/DDP,0.68
same,Combination index values ED90,A2780/DDP,0.63
same,Combination index values ED50,SW620,0.60
same,Combination index values ED75,SW620,0.55
same,Combination index values ED90,SW620,0.66
"N.N.O=C([O-])C1(C(=O)[O-])CCC1.[Pt+2] [Carboplatin, carboplatin]",Combination index values ED50,NCI-H460,0.53
same,Combination index values ED75,NCI-H460,0.71
same,Combination index values ED90,NCI-H460,0.95
